Like-named read-outs stand apart in the source and are kept apart here.
Assays:
[1] = tested on: patients with Wilson disease (WD); experiment: Clinical Global Impression-Improvement scale (CGI-I); format: in vivo, human; conditions: for Transformed CGI-I (−3 to 3), LSM / Transformed CGI-I (−3 to 3), Mean: Study 301 TTM long term set
Text: (§1) Clinical Global Impression-[…]: The Clinical Global Impression (CGI) rating scales were commonly used measures of symptom severity, treatment response, and the efficacy of treatments in treatment studies of adult and pediatric patients with mental disorders.
While transformed CGI-I (TCGI-I) assesses how the WD patients' condition changed compared to baseline, CGI-I may indicate the overall clinical improvement of the patients in the study compared to baseline for each treatment arm.

participants with WD = tested on: participants with WD
Text: The term “dNCC” refers to NCC as directly measured using an NCC assay. For example, in certain embodiments of the methods, uses, or compositions (e.g., comprising tetrathiomolybdic acid or a pharmaceutically acceptable salt thereof) of the disclosure, dNCC is directly measured using the NCC assay as disclosed in PCT Patent Application Publication No. WO2021/050850, filed on Sep.
These participants had all intake (food and drink) and output (urine and feces) collected from Day −4 through Day −1 (baseline), from Day 1 through Day 8, and Day 25 through Day 39.

[2] = tested on: participants with cirrhosis at baseline
Text: Study 205 is registered with ClinicalTrials.gov, number NCT04422431, and incorporated by reference in its entirety.

[3] = tested on: patients with Wilson disease (WD); experiment: Clinical Global Impression-Severity scale (CGI-S); format: in vivo, human; conditions: for CGI-S (1 to 7, 1 is normal) change from baseline, LSM / CGI-S (1 to 7, 1 is normal) change from baseline, Mean: Study 301 TTM long term set
Text: as §1
The Clinical Global Impression-Severity scale (CGI-S) is a 7-point scale that requires the clinician to rate the severity of the patient's illness at the time of assessment, relative to the clinician's past experience with patients who have the same diagnosis. Considering total clinical experience, a patient was assessed on severity of illness at the time of rating as: 1, normal, not at all ill; 2, borderline ill; 3, mildly ill; 4, moderately ill; 5, markedly ill; 6, severely ill; or 7, extremely ill.

[4] = Subpopulation E, Week 48, TTM N=78, SoC N=39
[5] = Subpopulation E, Baseline, TTM N=104, SoC N=56
[6] = Subpopulation E, Week 48, TTM N=89, SoC N=47

With bis-choline tetrathiomolybdate [TTM] the “T-CGI-I (−3 to 3, −3 is very much improved) at 48 weeks, LSM” value ([1]; Study 301 Full Analysis Set) was −0.7, the “T-CGI-I (−3 to 3, −3 is very much improved) at 48 weeks, Mean” value ([1]; Study 301 Full Analysis Set) was −0.7 and the “Transformed Global Improvement (CGI-I), Change from Baseline, LSM” value ([1]; Subpopulation E, Week 48) was −0.7. For the same substance, the “Transformed Global Improvement (CGI-I), Change from Baseline, LSM Diff (TTM vs SoC)” value ([1]; Subpopulation E, Week 48) was −0.5, the “Transformed Global Improvement (CGI-I), Change from Baseline, Max” value [1, 4] was 1 and the “Transformed Global Improvement (CGI-I), Change from Baseline, Mean” value [1, 4] was −0.7. For the same substance, the “Transformed Global Improvement (CGI-I), Change from Baseline, Median” value [1, 4] was 0.0, the “Transformed Global Improvement (CGI-I), Change from Baseline, Min” value [1, 4] was −3, and the “Transformed Global Improvement (CGI-I), Change from Baseline, Q1” value [1, 4] was −1.0,. For the same substance, the “Transformed Global Improvement (CGI-I), Change from Baseline, Q3” value [1, 4] was 0.0, the “T-CGI-I, Difference at 48 weeks, LSM” value ([1]; TTM vs SoC, P 0.0316) was −0.3 and the “CGI-I, LSM difference (SE) TTM versus SoC” value ([1]; W0-W48, cohort 1 incomplete response or intolerant, p=0.0051) was −0.4 (0.15). For the same substance, the “Transformed CGI-I (−3 to 3), LSM” value ([1]; Week 24) was −0.6, the “Transformed CGI-I (−3 to 3), Mean” value ([1]; Week 24) was −0.5 and the “Transformed CGI-I (−3 to 3), LSM” value ([1]; Week 48) was −0.8. For the same substance, the “Transformed CGI-I (−3 to 3), Mean” value ([1]; Week 48) was −0.7, the “Transformed CGI-I (−3 to 3), LSM” value ([1]; Week 72) was −0.6 and the “Transformed CGI-I (−3 to 3), Mean” value ([1]; Week 72) was −0.5. For the same substance, the “Transformed CGI-I (−3 to 3), LSM” value ([1]; Week 96) was −0.6, the “Transformed CGI-I (−3 to 3), Mean” value ([1]; Week 96) was −0.5 and the “Transformed CGI-I (−3 to 3), LSM” value ([1]; Week 120) was −0.7. For the same substance, the “Transformed CGI-I (−3 to 3), Mean” value ([1]; Week 120) was −0.7, the “Transformed CGI-I (−3 to 3), LSM” value ([1]; Week 144) was −0.8 and the “Transformed CGI-I (−3 to 3), Mean” value ([1]; Week 144) was −0.7. The “Increase from Baseline in Directly Measured NCC, Mean” value (from here on “Increase from Baseline”) (participants with WD; Day 1, 2 Hours Post-Dose) was 0.5004 µmol/L, the “Increase from Baseline” value (participants with WD; Day 1, 4 Hours Post-Dose) was 1.96 µmol/L and the “Increase from Baseline” value (participants with WD; Day 1, 5 Hours Post-Dose) was 2.719 µmol/L. The “Increase from Baseline” value (participants with WD; Day 1, 6 Hours Post-Dose) was 2.324 µmol/L, the “Increase from Baseline” value (participants with WD; Day 1, 8 Hours Post-Dose) was 2.402 µmol/L and the “Increase from Baseline” value (participants with WD; Day 1, 12 Hours Post-Dose) was 1.725 µmol/L. The “Increase from Baseline” value (participants with WD; Day 1, 24 Hours Post-Dose) was 1.063 µmol/L, the “Increase from Baseline” value (participants with WD; Day 4, Pre-Dose) was 2.677 µmol/L and the “Increase from Baseline” value (participants with WD; Day 5, Pre-Dose) was 3.144 µmol/L. The “Increase from Baseline” value (participants with WD; Day 6, Pre-Dose) was 3.574 µmol/L, the “Increase from Baseline” value (participants with WD; Day 7, Pre-Dose) was 3.7 µmol/L and the “Increase from Baseline” value (participants with WD; Day 25, 2 Hours Post-Dose) was 2.551 µmol/L. For the same substance, the “Increase from Baseline” value (participants with WD; Day 25, 4 Hours Post-Dose) was 3.443 µmol/L, the “Increase from Baseline” value (participants with WD; Day 25, 5 Hours Post-Dose) was 3.38 µmol/L and the “Increase from Baseline” value (participants with WD; Day 25, 6 Hours Post-Dose) was 4.44 µmol/L. For the same substance, the “Increase from Baseline” value (participants with WD; Day 25, 8 Hours Post-Dose) was 5.101 µmol/L, the “Increase from Baseline” value (participants with WD; Day 25, 12 Hours Post-Dose) was 4.917 µmol/L and the “Increase from Baseline” value (participants with WD; Day 25, 24 Hours Post-Dose) was 3.438 µmol/L. For the same substance, the “Increase from Baseline” value (participants with WD; Day 25, −0.5 Hours) was 2.121 µmol/L, the “Increase from Baseline” value (participants with WD; Day 27, Pre-Dose, N=2) was 2.767 µmol/L and the “Increase from Baseline” value (participants with WD; Day 28, Pre-Dose, N=2) was 2.327 µmol/L. For the same substance, the “Increase from Baseline” value (participants with WD; Day 29, 2 Hours Post-Dose) was 2.814 µmol/L, the “Increase from Baseline” value (participants with WD; Day 29, 4 Hours Post-Dose) was 3.38 µmol/L and the “Increase from Baseline” value (participants with WD; Day 29, 5 Hours Post-Dose) was 4.078 µmol/L. For the same substance, the “Increase from Baseline” value (participants with WD; Day 29, 6 Hours Post-Dose) was 4.686 µmol/L, the “Increase from Baseline” value (participants with WD; Day 29, 8 Hours Post-Dose) was 5.305 µmol/L and the “Increase from Baseline” value (participants with WD; Day 29, 12 Hours Post-Dose) was 4.749 µmol/L. For the same substance, the “Increase from Baseline” value (participants with WD; Day 29, 24 Hours Post-Dose) was 3.543 µmol/L, the “Increase from Baseline” value (participants with WD; Day 29, −0.5 Hours) was 2.662 µmol/L and the “Increase from Baseline” value (participants with WD; Day 31, Pre-Dose, N=2) was 4.121 µmol/L. For the same substance, the “Increase from Baseline” value (participants with WD; Day 32, Pre-Dose, N=1) was 8.131 µmol/L, the “Increase from Baseline” value (participants with WD; Day 33, Pre-Dose, N=2) was 4.231 µmol/L and the “Increase from Baseline” value (participants with WD; Day 34, Pre-Dose, N=2) was 4.103 µmol/L. The “Increase from Baseline” value (participants with WD; Day 35, Pre-Dose, N=2) was 4.49 µmol/L, the “Increase from Baseline” value (participants with WD; Day 36, Pre-Dose, N=2) was 3.465 µmol/L and the “Increase from Baseline” value (participants with WD; Day 37, Pre-Dose, N=2) was 4.168 µmol/L. The “Increase from Baseline” value (participants with WD; Day 38, Pre-Dose, N=1) was 7.643 µmol/L, the “Increase from Baseline” value (participants with WD; Day 39, 2 Hours Post-Dose) was 3.816 µmol/L and the “Increase from Baseline” value (participants with WD; Day 39, 4 Hours Post-Dose) was 5.578 µmol/L. For the same substance, the “Increase from Baseline” value (participants with WD; Day 39, 5 Hours Post-Dose) was 6.26 µmol/L, the “Increase from Baseline” value (participants with WD; Day 39, 6 Hours Post-Dose) was 6.659 µmol/L and the “Increase from Baseline” value (participants with WD; Day 39, 8 Hours Post-Dose) was 7.32 µmol/L. The “Increase from Baseline” value (participants with WD; Day 39, 12 Hours Post-Dose) was 6.554 µmol/L, the “Increase from Baseline” value (participants with WD; Day 39, 24 Hours Post-Dose) was 4.545 µmol/L and the “Increase from Baseline” value (participants with WD; Day 39, −0.5 Hours) was 3.412 µmol/L. For the same substance, the “participants with cirrhosis at baseline who maintained liver function (albumin levels)” value ([2]; in vivo) was 87%, the “cirrhotic participants whose albumin levels returned to the normal range” value ([2]; of the 13 who experienced changes in liver function) was 7 participants and the “CGI-S (1-7, 1 is normal), Change from Baseline at 48 weeks, LSM” value ([3]; Study 301 Full Analysis Set) was −0.3. For the same substance, the “CGI-S (1-7, 1 is normal), Change from Baseline at 48 weeks, Mean” value ([3]; Study 301 Full Analysis Set) was −0.5, the “CGI-S, Max” value [3, 5] was 6 and the “CGI-S, Mean” value [3, 5] was 2.9. The “CGI-S, Min” value [3, 5] was 1,, the “CGI-S, Change from Baseline, LSM” value ([3]; Subpopulation E, Week 48) was −0.4 and the “CGI-S, Change from Baseline, LSM Diff (SE) (TTM vs SoC)” value ([3]; Subpopulation E, Week 48) was −0.2 (0.13). The “CGI-S, Change from Baseline, Max” value [3, 6] was 1, the “CGI-S, Change from Baseline, Mean” value [3, 6] was −0.4 and the “CGI-S, Change from Baseline, Median” value [3, 6] was 0.0. The “CGI-S, Change from Baseline, Min” value [3, 6] was −3,, the “CGI-S, Change from Baseline, Q1” value [3, 6] was −1.0, and the “CGI-S, Change from Baseline, Q3” value [3, 6] was 0.0. The “CGI-S, Difference at 48 weeks, LSM” value ([3]; TTM vs SoC, P 0.2290) was −0.2, the “CGI-S (1 to 7, 1 is normal) change from baseline, LSM” value ([3]; Week 24) was −0.3 and the “CGI-S (1 to 7, 1 is normal) change from baseline, Mean” value ([3]; Week 24) was −0.2. For the same substance, the “CGI-S (1 to 7, 1 is normal) change from baseline, LSM” value ([3]; Week 48) was −0.4, the “CGI-S (1 to 7, 1 is normal) change from baseline, Mean” value ([3]; Week 48) was −0.5 and the “CGI-S (1 to 7, 1 is normal) change from baseline, LSM” value ([3]; Week 72) was −0.5. For the same substance, the “CGI-S (1 to 7, 1 is normal) change from baseline, Mean” value ([3]; Week 72) was −0.6, the “CGI-S (1 to 7, 1 is normal) change from baseline, LSM” value ([3]; Week 96) was −0.5 and the “CGI-S (1 to 7, 1 is normal) change from baseline, Mean” value ([3]; Week 96) was −0.6. For the same substance, the “CGI-S (1 to 7, 1 is normal) change from baseline, LSM” value ([3]; Week 120) was −0.7, the “CGI-S (1 to 7, 1 is normal) change from baseline, Mean” value ([3]; Week 120) was −0.6 and the “CGI-S (1 to 7, 1 is normal) change from baseline, LSM” value ([3]; Week 144) was −0.6. The “CGI-S (1 to 7, 1 is normal) change from baseline, Mean” value ([3]; Week 144) was −0.6.

Reference: patent US20260216238A1, “TETRATHIOMOLYBDIC ACID FOR USE IN TREATING COPPER METABOLISM-ASSOCIATED DISEASES OR DISORDERS (WILSON DISEASE)” (Alexion Pharmaceuticals, Inc., priority 2023, published 2026)
